Data on 1 molecule can be found in patent US10265345B2 (priority 2008, dated 2019).

The subject of test [1] is acute cerebral ischemia (MCAO) in rats. The class given is in vivo, Male Wistar rats. The conditions noted are these: 3 mg/kg, 5 doses from 2 h after surgery, 48 h.
For test [2], the system named is lactic acid in brain tissues. In words: Level of lactic acid in brain tissues 48 hours after permanent MCAO. The class given is in vivo, Male Wistar rats. Conditions: rat brain tissues, 3 mg/kg.
Test [3] deals with acute cerebral ischemia (MCAO) in rats. Details: species or system Male Wistar rats. The conditions noted are these: rat, in vivo, 3 mg/kg.
Test [4] has as its system superoxide dismutase (SOD). It counts as in vivo, Male Wistar rats. The conditions noted are these: rat brain tissues, 3 mg/kg, 48 hours after permanent MCAO.

Each structure is given as a SMILES string. Read-outs that look alike come from different tables or passages of the source.

Consider `CC1=NN(c2ccccc2)C(=O)C1` [Edaravone, edaravone], for which the “Scores of MCAO neurological symptoms” value is 4.3 ± 1.6 in test [1] (model group 5.3 ± 2.8) and “no significant difference” in test [1] (model group 5.3 ± 2.8, listed as edaravone). For the same molecule, the “Level of Lactic acid” value was 0.64 ± 0.08 mmol/g protein in test [2] (model 0.98 ± 0.09, sham 0.37 ± 0.01) and 0.64±0.08 mmol/g protein in test [2] (model 0.98 ± 0.09, sham 0.37 ± 0.01, listed as edaravone). In test [3], the “Volume (area) of cerebral infarction” value is “decreased significantly”. Moreover, the figures for the “SOD Activity” value in test [4] and in test [4] (listed as edaravone) were 234.66 ± 15.85 U/mg pro and “significantly increased”, respectively.
